This is an account of results in patent US5607931A, “1,2-disubstituted ethly amides as inhibitors of ACAT” (Schering Corporation, priority 1995, dated 1997).

The term IC50 denotes the concentration needed to halve the response being measured. A lower IC50 goes with greater potency.

The target in one assay is T1, ACAT (Rattus norvegicus, UniProt Q7TQM4).
T1 construct: Rat liver microsomes are used as the source of ACAT; from tissue; host or cells: rat liver microsomes
T1 sequence (Q7TQM4 1-524): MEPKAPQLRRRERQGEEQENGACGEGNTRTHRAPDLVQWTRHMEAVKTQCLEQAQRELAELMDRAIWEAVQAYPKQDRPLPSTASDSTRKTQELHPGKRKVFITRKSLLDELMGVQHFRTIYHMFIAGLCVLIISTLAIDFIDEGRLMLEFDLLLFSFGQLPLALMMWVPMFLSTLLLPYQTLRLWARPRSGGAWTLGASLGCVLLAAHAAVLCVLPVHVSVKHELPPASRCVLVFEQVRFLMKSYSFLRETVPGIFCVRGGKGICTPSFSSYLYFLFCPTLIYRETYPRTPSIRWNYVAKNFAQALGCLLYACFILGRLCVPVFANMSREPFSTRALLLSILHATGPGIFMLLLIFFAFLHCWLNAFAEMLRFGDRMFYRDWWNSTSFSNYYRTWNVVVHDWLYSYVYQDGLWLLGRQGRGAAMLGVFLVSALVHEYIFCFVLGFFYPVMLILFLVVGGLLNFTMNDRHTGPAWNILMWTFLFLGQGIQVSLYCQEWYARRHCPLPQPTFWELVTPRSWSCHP
As to the kind of experiment: ACAT Assay (in vitro), transfer of tritiated oleic acid from acyl-CoA to cholesterol, rat liver microsomes. The settings on record: for inhibition at 10 µM: read-out: % ACAT Inhib. @10 μM; for IC50: 0.1 to 25 μM. Format: biochemical. The procedure:
This assay measures the activity of ACAT by measuring the ACAT-mediated transfer of tritiated oleic acid from acyl-CoA to cholesterol to give labelled cholesterol oleate. Rat liver microsomes are used as the source of ACAT. Assays are performed in round bottom microtiterplates using a total incubation volume of 50 μL. Each incubation well receives 10 μL assay buffer (0.5M KHPO4, 10 μM dithiothreitol, pH 7.4), 7.5 μL of 40 mg/mL BSA (Bovine Serum Albumin) and 12.5 μg of microsomal protein. The test compound (in sufficient amount to bring the final concentration to from 0.1 to 25 μM), reference compound, or vehicle control is added and the final volume brought to 47 μL. The microtiterplate is then floated on the surface of a 37° C. water bath for fifteen minutes. Incubations are started by the addition of 3 μL ^3 H-acyl CoA (1 μCi/well, final concentration of 10 μM acyl CoA). The plate is then returned to the water bath for 15 minutes. The incubations are then terminated by application of 15 μL from each incubation to individual lanes on a thin layer plate (Silica Gel GF 20×20 cm). Standards are applied to several lanes so that the cholesterol ester band can be identified. After drying, the plates are eluted with 90:10:1 petroleum ether:diethyl ether:acetic acid. The standards are visualized via iodine vapor, and the regions corresponding to cholesterol ester are scraped into 7 mL scintillation vials. 4 mL of scintillant are added to each vial, and the radioactivity quantified. Background count is determined by the boiled controls. Full activity is determined by activity in the presence of vehicle. The percent inhibition is calculated by subtracting the background from both control and test samples, and the test value is calculated as a percentage of the control. For IC50 determinations, the inhibition is plotted against drug does on a log scale and the concentration at which 50% inhibition is obtained is determined.
For orientation: Microsomes from liver hold many membrane-bound enzymes, among them those of drug oxidation.

The subject of a further assay is liver cholesterol esters. Nature of the assay: In Vivo Assay of Hypolipidemic Agents Using the Hyperlipidemic Hamster. The settings on record: Mesocricetus auratus, 168 h; 50 mpk, oral gavage in corn oil once daily, seven days; 0.5% cholesterol diet; percent reduction versus control; read-out: In Vivo 50 mpk % Redn. L/CE. As to the method: In Vivo Assay of Hypolipidemic Agents Using the Hyperlipidemic Hamster
Hamsters are separated into groups of six and given a control cholesterol diet (Purina Chow #5001 containing 0.5% cholesterol) for seven days. Diet consumption is monitored to determine dietary cholesterol exposure in the face of test compounds. The animals are dosed with the test compound once daily beginning with the initiation of diet. Dosing is by oral gavage of 0.2 mL of corn oil alone (control group) or solution (or suspension) of test compound in corn oil. All animals moribund or in poor physical condition are euthanized. After seven days, the animals are anesthetized by IM injection of ketamine and sacrificed by decapitation. Blood is collected into vacutainer tubes containing EDTA for plasma lipid analysis and the liver excised for tissue lipid analysis. Data is reported as percent reduction of lipid versus control.

For the molecule `CCCCCCCC/C=C\CCCCCCCC(=O)NC(CC1CCCCC1)c1ccccc1` (centres unmarked), on ACAT, the inhibition at 10 µM turned out to be 92% and half-maximal inhibition (IC50) was put at 180 nM.
On to `CCCCCCCC/C=C\CCCCCCCC(=O)NC(Cc1ccccc1)C1CCCCC1` (centres unmarked), for which, at ACAT, the inhibition at 10 µM was found to be 90% and the IC50 was 170 nM. The change in vivo at 50 mg/kg in the assay with liver cholesterol esters was found to be 0%.
Take `CCCCCCCC/C=C\CCCCCCCC(=O)NC(CN1CCOCC1)c1ccccc1` (centres unmarked): on ACAT, the inhibition at 10 µM came out at 99% and the IC50 turned out to be 300 nM. The change in vivo at 50 mg/kg in the assay on liver cholesterol esters was -21%.
The like results for `CCCCCCCC/C=C\CCCCCCCC(=O)NC(CN1CCCCC1)c1ccccc1` (centres unmarked) were, in that order, 94%, 1200 nM and -12%.
The like results for `CCCCCCCC/C=C\CCCCCCCC(=O)NC(CN1CCN(C)CC1)c1ccccc1` (centres unmarked) were, in that order, 98%, 300 nM and -55%.
The like results for `CCCCCCCC/C=C\CCCCCCCC(=O)NC(CN1CCC2(CC1)OCCO2)c1ccccc1` (centres unmarked) were, in that order, 93%, 10 nM and -35%.
Consider `CCCCCCCC/C=C\CCCCCCCC(=O)NC(CN1CCC(=O)CC1)c1ccccc1` (centres unmarked), for which, on ACAT, the inhibition at 10 µM was determined as 100% and the IC50 was found to be 180 nM.
Consider `CCCCCCCC/C=C\CCCCCCCC(=O)NC(CN1CCC(=NO)CC1)c1ccccc1` (centres unmarked), for which, at ACAT, the inhibition at 10 µM stood at 100% and 30 nM corresponded to half-maximal inhibition (IC50). Also, the change in vivo at 50 mg/kg with liver cholesterol esters is -21%.
In the case of `CCCCCC/C=C\CCCCCCCC(=O)NC(CN1CCN(C)CC1)c1ccccc1` (centres unmarked), at ACAT, the inhibition at 10 µM stood at 97% and the IC50 was 160 nM. For the same molecule, the change in vivo at 50 mg/kg with liver cholesterol esters was -37%.
Turning to `CCCCCCCC/C=C\CCCCCCCC(=O)NC(CN1CCC(O)CC1)c1ccccc1` (centres unmarked), on ACAT, the inhibition at 10 µM was determined as 98% and inhibition was half-maximal at 340 nM (IC50). For the same molecule, in the assay with liver cholesterol esters, the change in vivo at 50 mg/kg was -25%.
The corresponding values for `CCCCCCCC/C=C\CCCCCCCC(=O)NC(CN1CCN(C(=O)OC(C)(C)C)CC1)c1ccccc1` (centres unmarked) are 100%, 60 nM and -22%.
The like results for `CCCCCCCC/C=C\CCCCCCCC(=O)NC(CN1CCC(OC)(OC)CC1)c1ccccc1` (centres unmarked) were, in that order, 93%, 500 nM and -18%.
`CCCCCCCC/C=C\CCCCCCCC(=O)NC(CN1CCC2(CCCC2)CC1)c1ccccc1` (centres unmarked): the inhibition at 10 µM on ACAT stood at 59%. The change in vivo at 50 mg/kg in the assay on liver cholesterol esters stood at 0%.
Consider `CCCCCCCC/C=C\CCCCCCCC(=O)NC(CN1CCC(OC)CC1)c1ccccc1` (centres unmarked), for which, on ACAT, the inhibition at 10 µM worked out at 93% and the IC50 came out at 150 nM. Besides, the change in vivo at 50 mg/kg with liver cholesterol esters is -24%.
Turning to `CCCCCCCC/C=C\CCCCCCCC(=O)NC(CN1CCNCC1)c1ccccc1` (centres unmarked), the inhibition at 10 µM at ACAT turned out to be 64%. Besides, in the assay on liver cholesterol esters, the change in vivo at 50 mg/kg was -54%.
As to `CCCCCCCC/C=C\CCCCCCCC(=O)NC(CN1CCC(NC(=O)C(F)(F)F)CC1)c1ccccc1` (centres unmarked), at ACAT, the inhibition at 10 µM is 90% and the IC50 came to 800 nM. In addition, in the assay on liver cholesterol esters, the change in vivo at 50 mg/kg was 0%.
With `CCCCCCCC/C=C\CCCCCCCC(=O)NC(CN1CCC(N)CC1)c1ccccc1` (centres unmarked), the inhibition at 10 µM at ACAT was -90%. The change in vivo at 50 mg/kg with liver cholesterol esters is -59%.
The like results for `O=C(NC(CN1CCCCC1)c1ccccc1)C(c1ccccc1)c1ccccc1` (centres unmarked) were, in that order, 64% and 0%.
With `O=C(NC(CN1CCOCC1)c1ccccc1)C(c1ccccc1)c1ccccc1` (centres unmarked), at ACAT, the inhibition at 10 µM turned out to be 94% and the IC50 is 3000 nM. The change in vivo at 50 mg/kg in the assay with liver cholesterol esters is -15%.
The corresponding values for `CN1CCN(CC(NC(=O)C(c2ccccc2)c2ccccc2)c2ccccc2)CC1` (centres unmarked) are 71%, 4500 nM and -39%.
The like results for `O=C(NC(CN1CCC2(CC1)OCCO2)c1ccccc1)C(c1ccccc1)c1ccccc1` (centres unmarked) were, in that order, 94%, 300 nM and -26%.
The corresponding values for `O=C1CCN(CC(NC(=O)C(c2ccccc2)c2ccccc2)c2ccccc2)CC1` (centres unmarked) are 90%, 500 nM and 0%.
Consider `O=C(NC(CN1CCC(O)CC1)c1ccccc1)C(c1ccccc1)c1ccccc1` (centres unmarked), for which, at ACAT, the inhibition at 10 µM turned out to be 83% and the IC50 worked out at 3000 nM. Moreover, the change in vivo at 50 mg/kg with liver cholesterol esters is -25%.
The like results for `O=C(NC(CN1CCC(=NO)CC1)c1ccccc1)C(c1ccccc1)c1ccccc1` (centres unmarked) were, in that order, 94%, 400 nM and 0%.
For `CC(=O)OC1CCN(CC(NC(=O)C(c2ccccc2)c2ccccc2)c2ccccc2)CC1` (centres unmarked), the inhibition at 10 µM at ACAT was found to be 59%. Also, in the assay with liver cholesterol esters, the change in vivo at 50 mg/kg is -25%.
For `CC(=O)CC(=O)OC1CCN(CC(NC(=O)C(c2ccccc2)c2ccccc2)c2ccccc2)CC1` (centres unmarked), on ACAT, the inhibition at 10 µM stood at 53%.
As to `COC1CCN(CC(NC(=O)C(c2ccccc2)c2ccccc2)c2ccccc2)CC1` (centres unmarked), at ACAT, the inhibition at 10 µM amounted to 88% and the IC50 was 1000 nM. The change in vivo at 50 mg/kg in the assay on liver cholesterol esters was -30%.
The corresponding values for `CCCCCCCCCCCCCCCCCC(=O)NC(CN1CCN(C)CC1)c1ccccc1` (centres unmarked) are 90%, 500 nM and -25%.
In the case of `CCCCCCCCCCCCCCCC(=O)NC(CN1CCN(C)CC1)c1ccccc1` (centres unmarked), on ACAT, the inhibition at 10 µM was 87% and the IC50 is 1200 nM. The change in vivo at 50 mg/kg in the assay with liver cholesterol esters is -60%.
The like results for `CCCCCCCCCCCCCC(=O)NC(CN1CCN(C)CC1)c1ccccc1` (centres unmarked) were, in that order, 81%, 7000 nM and 0%.
For `CCCCCCCCCCCC(=O)NC(CN1CCN(C)CC1)c1ccccc1` (centres unmarked), the inhibition at 10 µM on ACAT worked out at 58%. Also, the change in vivo at 50 mg/kg in the assay on liver cholesterol esters amounted to 0%.
For the molecule `CCCCCCCCCCC(C)(C)C(=O)NC(CN1CCN(C)CC1)c1ccccc1` (centres unmarked), on ACAT, the inhibition at 10 µM turned out to be 94% and the IC50 is 390 nM. Further, the change in vivo at 50 mg/kg in the assay on liver cholesterol esters stood at 0%.
The corresponding values for `CCCCCCCCCCCCCCCC(=O)NC(CN1CCC2(CC1)OCCO2)c1ccccc1` (centres unmarked) are 99%, 160 nM and -19%.
As for `CCCCCCCCCCCCC(C)(C)C(=O)NC(CN1CCN(C)CC1)c1ccccc1` (centres unmarked), at ACAT, the inhibition at 10 µM amounted to 95% and 290 nM corresponded to half-maximal inhibition (IC50). In addition, the change in vivo at 50 mg/kg in the assay with liver cholesterol esters was -44%.
The corresponding values for `CCCCCCCCCCCCCCC(C)(C)C(=O)NC(CN1CCN(C)CC1)c1ccccc1` (centres unmarked) are 97%, 1100 nM and -40%.
On to `O=C(CCCCCCCCCCOc1ccccc1)NC(CN1CCCCC1)c1ccccc1` (centres unmarked), for which, at ACAT, the inhibition at 10 µM stood at 84% and half-maximal inhibition (IC50) required 5000 nM. In addition, the change in vivo at 50 mg/kg with liver cholesterol esters came out at 0%.
The corresponding values for `CN1CCN(CC(NC(=O)CCCCCCCCCCOc2ccccc2)c2ccccc2)CC1` (centres unmarked) are 80%, 4000 nM and 0%.
The corresponding values for `CCCCCCCCCCCCCCCC(=O)NC(C(=O)N1CCN(C)CC1)c1ccccc1` (centres unmarked) are 95%, 1800 nM and -17%.
